In US20050227999A1, “Diarylamine derivatives as calcium channel blockers” (NeuroMed Technologies Inc., priority 2004, published 2005):
Where two headings read alike, the source gives them in different places.

How the values were obtained:
[1] = biological target: T1, rat brain N-type calcium channel subunits (α1B+α2δ+β1b cDNA subunits) (Rattus norvegicus, UniProt Q02294); assay: N-type calcium channel block, whole cell patch clamp in transfected HEK 293 cells; assay type: cell-based; details: holding potential −80 mV to +10 mV
T1 construct: expressed in transfected cells; host or cells: HEK 293
T1 sequence (Q02294 whole entry): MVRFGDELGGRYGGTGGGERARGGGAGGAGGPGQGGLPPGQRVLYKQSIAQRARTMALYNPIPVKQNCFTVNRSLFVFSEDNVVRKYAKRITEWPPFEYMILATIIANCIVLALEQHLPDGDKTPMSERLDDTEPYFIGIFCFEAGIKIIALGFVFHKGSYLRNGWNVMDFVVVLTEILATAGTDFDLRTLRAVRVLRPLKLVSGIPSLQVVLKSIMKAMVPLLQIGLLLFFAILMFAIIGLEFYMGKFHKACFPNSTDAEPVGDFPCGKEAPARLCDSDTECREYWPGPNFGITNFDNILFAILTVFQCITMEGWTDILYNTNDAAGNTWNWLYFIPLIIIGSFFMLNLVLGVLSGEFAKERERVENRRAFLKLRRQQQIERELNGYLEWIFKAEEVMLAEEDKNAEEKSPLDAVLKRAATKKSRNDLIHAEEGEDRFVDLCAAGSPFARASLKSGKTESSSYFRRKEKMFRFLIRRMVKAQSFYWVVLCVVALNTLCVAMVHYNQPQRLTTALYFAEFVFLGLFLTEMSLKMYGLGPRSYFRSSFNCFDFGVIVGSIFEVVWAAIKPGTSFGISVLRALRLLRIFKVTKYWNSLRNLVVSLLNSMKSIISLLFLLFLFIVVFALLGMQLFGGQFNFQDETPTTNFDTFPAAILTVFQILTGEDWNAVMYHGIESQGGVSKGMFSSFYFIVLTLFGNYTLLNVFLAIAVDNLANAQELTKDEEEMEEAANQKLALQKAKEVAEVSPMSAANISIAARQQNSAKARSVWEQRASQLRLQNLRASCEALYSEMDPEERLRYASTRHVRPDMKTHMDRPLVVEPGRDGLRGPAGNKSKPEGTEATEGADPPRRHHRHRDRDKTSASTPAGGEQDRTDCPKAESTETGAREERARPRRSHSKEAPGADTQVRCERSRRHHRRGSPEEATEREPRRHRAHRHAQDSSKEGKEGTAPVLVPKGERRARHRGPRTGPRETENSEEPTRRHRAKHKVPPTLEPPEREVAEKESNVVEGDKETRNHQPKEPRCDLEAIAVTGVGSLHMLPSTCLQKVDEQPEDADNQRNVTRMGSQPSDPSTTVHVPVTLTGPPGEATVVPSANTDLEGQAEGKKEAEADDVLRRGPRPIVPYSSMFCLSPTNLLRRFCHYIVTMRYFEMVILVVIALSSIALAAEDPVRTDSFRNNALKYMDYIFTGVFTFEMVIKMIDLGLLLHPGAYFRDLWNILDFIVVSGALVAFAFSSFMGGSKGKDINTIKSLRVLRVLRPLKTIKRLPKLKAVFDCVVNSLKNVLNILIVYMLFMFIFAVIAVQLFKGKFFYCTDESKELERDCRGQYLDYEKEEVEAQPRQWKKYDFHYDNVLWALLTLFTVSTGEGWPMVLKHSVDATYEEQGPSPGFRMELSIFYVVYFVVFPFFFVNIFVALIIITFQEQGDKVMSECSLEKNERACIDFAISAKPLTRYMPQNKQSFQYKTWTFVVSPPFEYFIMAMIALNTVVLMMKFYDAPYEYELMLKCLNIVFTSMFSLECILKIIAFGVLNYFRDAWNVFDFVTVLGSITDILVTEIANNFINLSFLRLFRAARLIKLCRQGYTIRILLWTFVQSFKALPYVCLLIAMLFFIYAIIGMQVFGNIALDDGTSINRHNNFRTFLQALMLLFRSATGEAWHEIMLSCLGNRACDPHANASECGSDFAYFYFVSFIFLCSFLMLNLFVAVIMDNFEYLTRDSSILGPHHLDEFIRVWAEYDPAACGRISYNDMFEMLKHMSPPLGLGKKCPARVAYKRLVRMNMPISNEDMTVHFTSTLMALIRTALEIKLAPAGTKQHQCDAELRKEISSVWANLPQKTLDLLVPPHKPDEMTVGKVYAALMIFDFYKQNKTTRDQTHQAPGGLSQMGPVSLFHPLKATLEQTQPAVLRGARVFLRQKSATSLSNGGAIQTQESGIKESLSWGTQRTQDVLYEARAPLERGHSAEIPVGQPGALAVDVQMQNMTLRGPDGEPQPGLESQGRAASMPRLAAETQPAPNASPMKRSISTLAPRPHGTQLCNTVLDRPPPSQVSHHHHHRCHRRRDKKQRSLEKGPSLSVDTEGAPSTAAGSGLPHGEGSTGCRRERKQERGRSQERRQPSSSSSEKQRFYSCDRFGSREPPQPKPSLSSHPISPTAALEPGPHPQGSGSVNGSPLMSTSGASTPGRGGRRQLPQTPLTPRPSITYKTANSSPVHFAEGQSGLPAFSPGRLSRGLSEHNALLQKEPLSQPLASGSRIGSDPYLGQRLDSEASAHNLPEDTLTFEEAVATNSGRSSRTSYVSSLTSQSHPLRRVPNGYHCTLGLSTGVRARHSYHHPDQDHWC
T1 sequence (P54290 25-944 partner limits assumed): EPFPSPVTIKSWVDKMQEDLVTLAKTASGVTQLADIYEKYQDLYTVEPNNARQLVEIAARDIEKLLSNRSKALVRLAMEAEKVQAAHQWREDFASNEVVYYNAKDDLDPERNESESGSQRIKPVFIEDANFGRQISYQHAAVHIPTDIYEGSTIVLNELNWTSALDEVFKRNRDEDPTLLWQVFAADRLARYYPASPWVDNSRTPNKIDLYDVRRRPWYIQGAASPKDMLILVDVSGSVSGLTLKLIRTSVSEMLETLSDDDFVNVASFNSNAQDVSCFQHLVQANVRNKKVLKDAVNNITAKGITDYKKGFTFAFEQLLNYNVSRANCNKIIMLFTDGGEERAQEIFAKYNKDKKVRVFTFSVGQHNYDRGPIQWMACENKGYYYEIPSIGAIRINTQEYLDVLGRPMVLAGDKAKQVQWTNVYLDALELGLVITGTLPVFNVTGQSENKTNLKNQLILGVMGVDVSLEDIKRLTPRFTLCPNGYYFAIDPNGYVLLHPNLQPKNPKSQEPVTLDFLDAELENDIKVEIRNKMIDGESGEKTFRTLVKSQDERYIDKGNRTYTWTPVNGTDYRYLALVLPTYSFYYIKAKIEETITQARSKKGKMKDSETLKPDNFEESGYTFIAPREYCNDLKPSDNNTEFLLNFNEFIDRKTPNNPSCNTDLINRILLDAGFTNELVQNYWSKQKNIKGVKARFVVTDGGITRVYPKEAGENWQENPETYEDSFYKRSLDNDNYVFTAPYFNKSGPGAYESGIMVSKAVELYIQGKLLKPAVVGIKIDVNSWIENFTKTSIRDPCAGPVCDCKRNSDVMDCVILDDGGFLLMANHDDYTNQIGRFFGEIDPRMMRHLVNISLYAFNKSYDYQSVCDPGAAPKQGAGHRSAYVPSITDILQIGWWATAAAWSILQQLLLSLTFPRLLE
T1 sequence (P54290 945-1091 partner limits assumed): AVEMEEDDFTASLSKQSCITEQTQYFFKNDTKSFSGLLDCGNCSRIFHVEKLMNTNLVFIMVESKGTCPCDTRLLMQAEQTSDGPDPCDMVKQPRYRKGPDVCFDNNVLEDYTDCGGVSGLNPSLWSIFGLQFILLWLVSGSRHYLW
T1 sequence (P54283 whole entry partner): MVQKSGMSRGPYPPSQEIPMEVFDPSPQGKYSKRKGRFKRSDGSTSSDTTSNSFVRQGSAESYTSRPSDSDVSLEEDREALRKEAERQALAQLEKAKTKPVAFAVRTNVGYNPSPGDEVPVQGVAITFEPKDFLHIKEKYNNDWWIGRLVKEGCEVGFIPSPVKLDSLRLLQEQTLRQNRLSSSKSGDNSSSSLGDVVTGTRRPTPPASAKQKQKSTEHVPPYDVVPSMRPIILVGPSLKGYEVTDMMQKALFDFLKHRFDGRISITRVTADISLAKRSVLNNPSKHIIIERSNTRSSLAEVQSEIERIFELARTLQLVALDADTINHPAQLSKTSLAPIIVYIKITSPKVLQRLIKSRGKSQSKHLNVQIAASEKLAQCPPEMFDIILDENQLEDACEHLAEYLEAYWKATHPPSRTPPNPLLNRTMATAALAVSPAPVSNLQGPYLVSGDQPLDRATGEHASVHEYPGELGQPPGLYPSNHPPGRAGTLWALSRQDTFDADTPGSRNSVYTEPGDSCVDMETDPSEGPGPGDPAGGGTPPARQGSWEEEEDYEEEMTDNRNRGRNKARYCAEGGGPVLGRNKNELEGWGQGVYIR
Method: N-type calcium channel blocking activity was assayed in human embryonic kidney cells, HEK 293, stably transfected with the rat brain N-type calcium channel subunits (α1B+α2δ+β1b cDNA subunits). Alternatively, N-type calcium channels (α1B+α2δ+β1b cDNA subunits), L-type channels (α1C+δ+β1b cDNA subunits) and P/Q-type channels (α1A+α2δ+β1b cDNA subunits) were transiently expressed in HEK 293 cells. Briefly, cells were cultured in Dulbecco's modified eagle medium (DMEM) supplemented with 10% fetal bovine serum, 200 U/ml penicillin and 0.2 mg/ml streptomycin at 37° C. with 5% CO2. At 85% confluency cells were split with 0.25% trypsin/l mM EDTA and plated at 10% confluency on glass coverslips. At 12 hours the medium was replaced and the cells transiently transfected using a standard calcium phosphate protocol and the appropriate calcium channel cDNA's. Fresh DMEM was supplied and the cells transferred to 28° C./5% CO2. Cells were incubated for 1 to 2 days before cell recording.
Whole cell patch clamp experiments were performed using an Axopatch 200B amplifier (Axon Instruments, Burlingame, Calif.) linked to a personal computer equipped with PCLAMP software. The external and internal recording solutions contained, respectively, 5 mM BaCl2, 10 mM MgCl2, 10 mM HEPES, 40 mM TEACl, 10 mM glucose, 87.5 mM CsCl (pH 7.2) and 108 mM CsMS, 4 mM MgCl2, 9 mM EGTA, 9 mM HEPES (pH 7.2). Currents were typically elicited from a holding potential of −80 mV to +10 mV using Clampex software (Axon Instruments). Typically, currents were first elicited with low frequency stimulation (0.067 Hz) and allowed to stabilize prior to application of the compounds. The compounds were then applied during the low frequency pulse trains for two to three minutes to assess tonic block, and subsequently the pulse frequency was increased to 0.2 Hz to assess frequency dependent block. Data were analyzed using Clampfit (Axon Instruments) and SigmaPlot 4.0 (Jandel Scientific). […]

[2] = biological target: T2, human α1G T-type channels (Homo sapiens, UniProt O43497); assay: T-type calcium channel block, patch clamp in HEK cell lines; assay type: cell-based
T2 construct: expressed in transfected cells
Method: Standard patch-clamp techniques were employed to identify blockers of T-type currents. Briefly, previously described HEK cell lines stably expressing human α1G T-type channels were used for all the recordings (passage #: 4-20, 37° C., 5% CO2). To obtain T-type currents, plastic dishes containing semi-confluent cells were positioned on the stage of a ZEISS AXIOVERT S100 microscope after replacing the culture medium with external solution (see below). Whole-cell patches were obtained using pipettes (borosilicate glass with filament, O.D.: 1.5 mm, I.D.: 0.86 mm, 10 cm length), fabricated on a SUTTER P-97 puller with resistance values of ˜5 MΩ (see below for internal solution).
In the non-inactivating protocol, the holding potential is set at −110 mV and with a pre-pulse at −100 mV for 1 second prior to the test pulse at 40 mV for 50 ms. […]
Test compounds were dissolved in external solution, 0.1-0.01% DMSO. After ˜10 min rest, they were applied by gravity close to the cell using a WPI microfil tubing. The “non-inactivated” pre-pulse was used to examine the resting block of a compound. The “inactivated” protocol was employed to study voltage-dependent block. However, the initial data shown below were mainly obtained using the non-inactivated protocol only. IC50 values are shown for various compounds of the invention in Table 4.

[3] = low frequency stimulation 0.067 Hz (tonic block), read-out: IC50 @ 0.067 Hz
[4] = pulse frequency 0.2 Hz (frequency dependent block), read-out: IC50 @ 0.2 Hz
[5] = −80 mV (inactivation protocol, voltage-dependent block), read-out: IC50 - 80 mV
[6] = −100 mV pre-pulse (non-inactivating protocol, resting block), read-out: IC50 - 100 mV
[7] = −100 mV pre-pulse (non-inactivating protocol, resting block)

SMILES | IC50 [1, 3] [µM] | IC50 [1, 4] [µM] | IC50 [2, 5] [µM] | IC50 [2, 6] [µM] | IC50 - 100 mV [2, 7]
O=C(CN1CCN(C(c2ccccc2)c2ccccc2Cl)CC1)N(c1ccccc1)c1ccccc1 (stereo not shown) [Compound 21, 2-{4-[(2-Chloro-phenyl)-phenyl-methyl]-piperazin-1-yl}-N,N-diphenyl-acetamide] | 0.124 | 0.052 | 0.034 | 0.134 | 
O=C(CN1CCN(C(c2ccccc2)c2cccc(Cl)c2Cl)CC1)N(c1ccccc1)c1ccccc1 (stereo not shown) [Compound 22, 2-{4-[(2,3-Dichloro-phenyl)-phenyl-methyl]-piperazin-1-yl}-N,N-diphenyl-acetamide] | 0.3 | 0.24 | 0.016 | 0.081 | 
Cc1ccc(C(c2ccccc2)N2CCN(C(=O)CN(c3ccccc3)c3ccccc3)CC2)c(C)c1 (stereo not shown) [Compound 2, 1-{4-[(2,4-Dimethyl-phenyl)-phenyl-methyl]-piperazin-1-yl}-2-diphenylamino-ethanone] | 0.29 | 0.26 | 0.444 | 2 | 
O=C(CN(c1ccccc1)c1ccccc1)N1CCN(C(c2ccccc2)c2ccccc2Cl)CC1 (stereo not shown) [Compound 6, 1-{4-[(2-Chloro-phenyl)-phenyl-methyl]-piperazin-1-yl}-2-diphenylamino-ethanone] | 0.33 | 0.32 | 1.2 |  | no effect
O=C(CN(c1ccccc1)c1ccccc1)N1CCN(C(c2ccccc2)c2ccc(Cl)cc2Cl)CC1 (stereo not shown) [Compound 3, 1-{4-[(2,4-Dichloro-phenyl)-phenyl-methyl]-piperazin-1-yl}-2-diphenylamino-ethanone] | 0.55 | 0.46 | 6 |  | no effect
O=C(CN(c1ccccc1)c1ccccc1)N1CCN(C(c2ccccc2)c2ccc(Cl)cc2)CC1 (stereo not shown) [Compound 4, 1-{4-[(4-Chloro-phenyl)-phenyl-methyl]-piperazin-1-yl}-2-diphenylamino-ethanone] | 0.55 | 0.5 | 0.748 | 3.8 | 
CN(C)CCCN1CCN(CC(=O)N(c2ccccc2)c2ccccc2)CC1 [Compound 26, 2-[4-(3-Dimethylamino-propyl)-piperazin-1-yl]-N,N-diphenyl-acetamide] | 0.35 | 0.34 | 1 |  | no effect
Cc1ccc(C(c2ccccc2)N2CCN(CC(=O)N(c3ccccc3)c3ccccc3)CC2)c(C)c1 (stereo not shown) [Compound 18, 2-{4-[(2,4-Dimethyl-phenyl)-phenyl-methyl]-piperazin-1-yl}-N,N-diphenyl-acetamide] | 1.76 | 1.25 | 0.084 | 0.229 | 
O=C(CN(c1ccccc1)c1ccccc1)N1CCN(C(c2ccccc2)c2ccccc2)CC1 [Compound 1, 1-(4-Benzhydryl-piperazin-1-yl)-2-diphenylamino-ethanone] | 6.63 | 6.61 | 0.51 | 1.35 | 
O=C(CN1CCN(C(c2ccccc2)c2ccccc2)CC1)N(c1ccccc1)c1ccccc1 [Compound 16, 2-(4-Benzhydryl-piperazin-1-yl)-N,N-diphenyl-acetamide] | 0.29 | 0.26 | 1.3 |  | no effect
CN1CCCC(CN2CCN(C(=O)CN(c3ccccc3)c3ccccc3)CC2)C1 (stereo not shown) [Compound 10, 2-Diphenylamino-1-[4-(1-methyl-piperidin-3-ylmethyl)-piperazin-1-yl]-ethanone] | 1.1 | 0.98 | 2 | 10 | 
CN1CCC(CN2CCN(CC(=O)N(c3ccccc3)c3ccccc3)CC2)CC1 [Compound 25, 2-[4-(1-Methyl-piperidin-4-ylmethyl)-piperazin-1-yl]-N,N-diphenyl-acetamide] | 0.46 | 0.46 | 3.7 | 5.7 | 
O=C(CN1CCN(C(c2ccccc2)c2ccc(Cl)cc2Cl)CC1)N(c1ccccc1)c1ccccc1 (stereo not shown) [Compound 17, 2-{4-[(2,4-Dichloro-phenyl)-phenyl-methyl]-piperazin-1-yl}-N,N-diphenyl-acetamide] | 0.83 | 0.51 | 0.029 | 0.118 | 
O=C(CN1CCN(C(c2ccccc2)c2cccc(Cl)c2)CC1)N(c1ccccc1)c1ccccc1 (stereo not shown) [Compound 20, 2-{4-[(3-Chloro-phenyl)-phenyl-methyl]-piperazin-1-yl}-N,N-diphenyl-acetamide] | 0.34 | 0.32 | 0.033 | 0.114 | 
O=C(CN1CCN(C(c2ccccc2)c2ccc(Cl)cc2)CC1)N(c1ccccc1)c1ccccc1 (stereo not shown) [Compound 19, 2-{4-[(4-Chloro-phenyl)-phenyl-methyl]-piperazin-1-yl}-N,N-diphenyl-acetamide] | 0.19 | 0.11 | 0.022 | 0.072 | 
O=C(CN(c1ccccc1)c1ccccc1)N1CCN(C(c2ccccc2)c2cccc(Cl)c2)CC1 (stereo not shown) [Compound 5, 1-{4-[(3-Chloro-phenyl)-phenyl-methyl]-piperazin-1-yl}-2-diphenylamino-ethanone] | 0.31 | 0.28 | 0.8 |  | no effect
